Laboratory results: patent publication US8372807B2, “Methods of modulating uric acid levels” (Ardea Biosciences, Inc., priority 2009, dated 2013)

The compounds below were run against T1, hURAT1 transporter (URAT-1) (Homo sapiens, UniProt Q96S37) (assay: Uric Acid Uptake Assay (URAT-1 EC50)). Conditions: HEK293/urat1 cells, C14 uric acid uptake, 40 μM uric acid, 10 minutes at room temperature.
T1 construct: Full-length human URAT1 gene (SLC22A12) was subcloned from plasmid pCMV6-XL5
T1 sequence (Q96S37 1-553): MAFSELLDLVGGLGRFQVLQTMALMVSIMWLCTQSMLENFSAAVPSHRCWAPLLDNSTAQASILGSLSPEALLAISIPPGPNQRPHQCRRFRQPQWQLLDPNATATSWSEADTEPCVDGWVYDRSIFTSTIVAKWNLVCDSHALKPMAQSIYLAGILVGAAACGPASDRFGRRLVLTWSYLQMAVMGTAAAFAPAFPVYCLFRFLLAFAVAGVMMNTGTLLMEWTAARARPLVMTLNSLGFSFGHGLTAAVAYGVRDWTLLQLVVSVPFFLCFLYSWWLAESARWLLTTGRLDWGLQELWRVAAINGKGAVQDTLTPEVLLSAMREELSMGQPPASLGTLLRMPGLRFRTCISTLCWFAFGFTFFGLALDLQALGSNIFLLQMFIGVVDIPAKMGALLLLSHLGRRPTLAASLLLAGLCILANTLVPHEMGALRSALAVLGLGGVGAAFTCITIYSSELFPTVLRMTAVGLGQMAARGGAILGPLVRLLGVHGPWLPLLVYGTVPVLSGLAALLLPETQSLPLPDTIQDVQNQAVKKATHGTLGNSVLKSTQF
Assay type: cell-based
From the text: Uric Acid Uptake Assay (URAT-1 EC50)
Creation of Stable Cell Lines Expressing hURAT1 Transporter: Full-length human URAT1 gene (SLC22A12) was subcloned from plasmid pCMV6-XL5 (Origene) into eukaryotic expression plasmid pCMV6/Neo (Origene) using Not I restriction sites. Gene sequencing confirmed the sequence of hURAT1 as outlined in Genbank (Accession #NM_144585.2). HEK293 human embryonic kidney cells (ATCC#CRL-1573) were propagated in EMEM tissue culture medium as described by ATCC in an atmosphere of 5% CO2 and 95% air. Transfections of HEK293 cells with the pCMV6/Neo/URAT1 construct were performed using L2000 transfection reagent (Invitrogen) as described by the manufacturer. After 24 h the transfected cells were split into 10 cm tissue culture plates and grown for 1 day after which the medium was replaced with fresh growth medium containing G418 (Gibco) at 0.5 mg/ml final concentration. Drug-resistant colonies were selected after approximately 8 days and then tested for ^14C-uric acid transport activity. The HEK293/urat1 cells are plated on Poly-D-Lysine Coated 96-well Plates at a density of 75,000 cells per well.
Cells were grown overnight (20-26 hours) at 37° C. in an incubator. Plates were allowed to come to room temperature and media was washed out with one wash of 250 μl of Wash Buffer (125 mM Na Gluconate, 10 mM Hepes pH 7.3). Compound or vehicle is added in assay buffer with C14 Uric Acid for a final concentration of 40 μM Uric Acid with a specific activity of 54 mCi/mmol Assay Buffer is 125 mM Sodium Gluconate, 4.8 mM Potassium Gluconate, 1.2 mM Potassium phosphate, monobasic, 1.2 mM magnesium sulfate, 1.3 mM Ca Gluconate, 5.6 mM Glucose, 25 mM HEPES, pH 7.3. Plates were incubated at room temperature for 10 minutes then washed 3 times with 50 μl Wash Buffer and 3 times with 250 μl Wash Buffer. Microscint 20 Scintillation Fluid was added and plates were incubated overnight at 45° C. to equilibrate. Plates are then read on the TopCount Plate Reader and an EC50 value generated. (See Enomoto et al, Nature, 2002, 417, 447-451 and Anzai et al, J. Biol. Chem., 2004, 279, 45942-45950.)
Compounds prepared as described above in examples 24-32, were examined according to the procedure described herein and EC50 values generated. The table below summarizes the activity of the compounds in the Uric Acid Uptake Assay, wherein
`CC(C)(Sc1cnnn1-c1cccc2ccccc12)C(=O)O` [Example 28, 2-Methyl-2-(1-(naphthalen-1-yl)-1H-1,2,3-triazol-5-ylthio)propanoic acid] was tested, and the EC50 was under 5 µM.
For `CC(C)(Oc1ccnn1-c1cccc2ccccc12)C(=O)O` [Example 24, 2-Methyl-2-(1-(naphthalen-1-yl)-1H-pyrazol-5-yloxy)propanoic acid], the EC50 was 5 to 20 µM.
Compound `Cc1[nH]nc(OC(C)(C)C(=O)O)c1-c1cccc2ccccc12` [26 (step D), 2-methyl-2-(5-methyl-4-(naphthalen-1-yl)-1H-pyrazol-3-yloxy)propanoic acid] has an EC50 of under 5 µM.
`CC(C)(Sc1ccnn1-c1cccc2ccccc12)C(=O)O` [Example 25, 2-Methyl-2-(1-(naphthalen-1-yl)-1H-pyrazol-5-ylthio)propanoic acid] gave an EC50 of under 5 µM.
`CCOC(=O)C(C)(C)Oc1n[nH]c(C)c1-c1cccc2ccccc12` [26 (step C), Ethyl 2-methyl-2-(5-methyl-4-(naphthalen-1-yl)-1H-pyrazol-3-yloxy)propanoate] gave an EC50 of under 5 µM.
`O=C(O)CSc1snnc1-c1cccc2ccccc12` [Example 32, 2-(4-(Naphthalen-1-yl)-1,2,3-thiadiazol-5-ylthio)acetic acid] showed an EC50 of 5 to 20 µM.
Work on `CC(C)(Sc1nnnn1-c1cccc2ccccc12)C(=O)O` [Example 30, 2-Methyl-2-(1-(naphthalen-1-yl)-1H-tetrazol-5-ylthio)propanoic acid] yielded an EC50 of under 5 µM.
